Results from patent publication US12338262B2 (Forward Therapeutics, Inc., priority 2022, dated 2025).
pIC50: −log10 of the molar value.

Molecular target: TNF-α (Homo sapiens, UniProt P01375)
Experiment: TNF-α Induced HEK Blue Cellular Assay
Type: cell-based
Conditions: HEK Blue TNFα reporter cells, TNF-α 100 pg/ml, 24 hrs at 37° C., secreted alkaline phosphatase (QUANTI-Blue, 620 nm)
Method: TNF-α Induced HEK Bluet Cellular Assay
Test articles were diluted in DMSO and serially diluted into 384 well assay plate (Corning 3765), at final concentrations ranging from […] to 0.5 nM. HEK Blue™ TNFα reporter cells were added at a final density of 10,000 cell per well in assay media [DMEM (Gibco, cat #21063-029), 10% fetal bovine serum (ExcelBio, cat #FND500), 1% Penicillin-Streptomycin (Solarbio, cat #P1400-100]. TNF-α (R&D 210-TA-020/CF) was then added to the assay plate at a final concentration of 100 pg/ml. This plate was then incubated for 24 hrs at 37° C. and 5% CO2. Secreted alkaline phosphatase expression was then measured using QUANTI-Blue™ (Invivogen), according to manufacturer instructions and read on an Envision microplate reader at 620 nm.
Inhibition data for test compound over a range of concentration was plotted as percentage inhibition of the test compound (100%=maximum inhibition). IC50 values were determined after correcting for background [(sample read-mean of low control)/(mean of high control-mean of low control)] where by the low control is DMSO without stimulation and high control is DMSO with stimulation. The IC50 is defined as the concentration of test compound which produces 50% inhibition and was quantified using the 4 parameter logistic equation to fit the data.

TNF-α, sequence (P01375 77-233 limits assumed): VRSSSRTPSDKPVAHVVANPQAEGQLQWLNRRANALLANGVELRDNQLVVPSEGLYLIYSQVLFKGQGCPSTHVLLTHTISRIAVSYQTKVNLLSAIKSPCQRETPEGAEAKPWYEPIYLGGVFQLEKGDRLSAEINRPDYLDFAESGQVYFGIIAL

SMILES | pIC50
CC[C@@H](Nc1c(Cl)c(C)nc2cc(F)c(-c3ccc(P(C)(C)=O)nc3)nc12)c1ccccc1F [Example 22, 3-chloro-6-[6-(dimethylphosphoryl)pyridin-3-yl]-7-fluoro-N-[(1R)-1-(2-fluorophenyl)propyl]-2-methyl-1,5-naphthyridin-4-amine] | ≥ 7.00
CC[C@H](Nc1c(Cl)c(C)nc2cc(F)c(-c3ccc(P(C)(C)=O)nc3)nc12)c1ccccc1F [Example 23, 3-chloro-6-[6-(dimethylphosphoryl)pyridin-3-yl]-7-fluoro-N-[(1S)-1-(2-fluorophenyl)propyl]-2-methyl-1,5-naphthyridin-4-amine] | ≥ 7.00
CC[C@@H](Nc1c(Cl)c(C)nc2cc(F)c(-c3ccc(P(C)(C)=O)c(F)c3)nc12)c1ccccc1F [Example 24, 3-chloro-6-[4-(dimethylphosphoryl)-3-fluorophenyl]-7-fluoro-N-[(1R)-1-(2-fluorophenyl)propyl]-2-methyl-1,5-naphthyridin-4-amine] | ≥ 6.00
Cc1nc2cc(F)c(-c3ccc(P(C)(C)=O)nc3)nc2c(N[C@H](c2ccccc2F)C(F)F)c1Cl [Example 26, (R)-(5-(7-chloro-8-((2,2-difluoro-1-(2-fluorophenyl)ethyl)amino)-3-fluoro-6-methyl-1,5-naphthyridin-2-yl)pyridin-2-yl)dimethylphosphine oxide] | 5.00 to 6.00
Cc1nc2cc(F)c(-c3cnc(P(C)(C)=O)nc3)nc2c(NC(c2ccccc2F)C(F)F)c1Cl (stereo not drawn) [Example 29, 3-chloro-N-[2,2-difluoro-1-(2-fluorophenyl)ethyl]-6-[2-(dimethylphosphoryl)pyrimidin-5-yl]-7-fluoro-2-methyl-1,5-naphthyridin-4-amine] | ≥ 6.00
Cc1nc2cc(F)c(N3CCC(P(C)(C)=O)CC3)nc2c(N[C@H](C)c2cc(C#N)ccc2F)c1Cl [Example 31, 3-[(1R)-1-({3-chloro-6-[4-(dimethylphosphoryl)piperidin-1-yl]-7-fluoro-2-methyl-1,5-naphthyridin-4-yl}amino)ethyl]-4-fluorobenzonitrile] | ≥ 7.00
CCOP(=O)(OCC)c1ccc(-c2nc3c(N[C@H](C)c4cc(C#N)ccc4F)c(Cl)c(C)nc3cc2F)cn1 [Example 32, diethyl 5-(7-chloro-8-{[(1R)-1-(5-cyano-2-fluorophenyl)ethyl]amino}-3-fluoro-6-methyl-1,5-naphthyridin-2-yl)pyridin-2-ylphosphonate] | ≥ 7.00
Cc1nc2cc(F)c(-c3cnc(P(C)(C)=O)nc3)nc2c(N[C@@H](c2cc(C#N)ccc2F)C(F)F)c1Cl [Example 36, (S)-3-(1-((3-chloro-6-(2-(dimethylphosphoryl)pyrimidin-5-yl)-7-fluoro-2-methyl-1,5-naphthyridin-4-yl)amino)-2,2-difluoroethyl)-4-fluorobenzonitrile] | ≥ 6.00
Cc1nc2cc(F)c(-c3cnc(P(C)(C)=O)nc3)nc2c(N[C@H](c2cc(C#N)ccc2F)C(F)F)c1Cl [Example 38, (R)-3-(1-((3-chloro-6-(2-(dimethylphosphoryl)pyrimidin-5-yl)-7-fluoro-2-methyl-1,5-naphthyridin-4-yl)amino)-2,2-difluoroethyl)-4-fluorobenzonitrile] | ≥ 6.00
Cc1nc2ccc(-c3ccc(P(C)(C)=O)nc3)nc2c(N[C@H](C)c2cc(C#N)ccc2F)c1Cl [Example 40, 3-[(1R)-1-({3-chloro-6-[6-(dimethylphosphoryl)pyridin-3-yl]-2-methyl-1,5-naphthyridin-4-yl}amino)ethyl]-4-fluorobenzonitrile] | ≥ 7.00
Cc1nc2ccc(-c3cnc(P(C)(C)=O)nc3)nc2c(N[C@H](C)c2cc(C#N)ccc2F)c1Cl [Example 41, 3-[(1R)-1-({3-chloro-6-[2-(dimethylphosphoryl)pyrimidin-5-yl]-2-methyl-1,5-naphthyridin-4-yl}amino)ethyl]-4-fluorobenzonitrile] | ≥ 6.00
Cc1nc2cc(F)c(-c3ccc(P(C)(C)=O)nc3)nc2c(N[C@H](C)c2cccc(C#N)c2)c1Cl [Example 43, 3-[(1R)-1-({3-chloro-6-[6-(dimethylphosphoryl)pyridin-3-yl]-7-fluoro-2-methyl-1,5-naphthyridin-4-yl}amino)ethyl]benzonitrile] | ≥ 7.00

The remaining lines, values ahead:

pIC50 | SMILES
≥ 7.00 | Cc1nc2cc(F)c(-c3ccc(P4(=O)CCCC4)nc3)nc2c(N[C@H](C)c2cc(C#N)ccc2F)c1Cl [Example 27, 3-[(1R)-1-({3-chloro-7-fluoro-2-methyl-6-[6-(1-oxo-1lambda5-phospholan-1-yl)pyridin-3-yl]-1,5-naphthyridin-4-yl}amino)ethyl]-4-fluorobenzonitrile]
≥ 7.00 | CCP(=O)(CC)c1ncc(-c2nc3c(N[C@H](C)c4cc(C#N)ccc4F)c(Cl)c(C)nc3cc2F)cn1 [Example 28, 3-[(1R)-1-({3-chloro-6-[2-(diethylphosphoryl)pyrimidin-5-yl]-7-fluoro-2-methyl-1,5-naphthyridin-4-yl}amino)ethyl]-4-fluorobenzonitrile]
≥ 7.00 | CC[C@H](Nc1c(Cl)c(C)nc2cc(F)c(-c3cnc(P(C)(C)=O)nc3)nc12)c1cc(C#N)ccc1F [Example 30, 3-[(1S)-1-({3-chloro-6-[2-(dimethylphosphoryl)pyrimidin-5-yl]-7-fluoro-2-methyl-1,5-naphthyridin-4-yl}amino)propyl]-4-fluorobenzonitrile]
≥ 7.00 | Cc1nc2cc(F)c(-c3ccc(OCP(C)(C)=O)nc3)nc2c(N[C@H](C)c2cc(C#N)ccc2F)c1Cl [Example 33, 3-[(1R)-1-[(3-chloro-6-{6-[(dimethylphosphoryl)methoxy]pyridin-3-yl}-7-fluoro-2-methyl-1,5-naphthyridin-4-yl)amino]ethyl]-4-fluorobenzonitrile]
≥ 7.00 | Cc1nc2cc(F)c(-c3ccc(P(C)(C)=O)nc3)nc2c(N[C@@H](c2cc(C#N)ccc2F)C(F)F)c1Cl [Example 34, (S)-3-(1-((3-chloro-6-(6-(dimethylphosphoryl)pyridin-3-yl)-7-fluoro-2-methyl-1,5-naphthyridin-4-yl)amino)-2,2-difluoroethyl)-4-fluorobenzonitrile]
≥ 6.00 | Cc1nc2cc(F)c(-c3ccc(P(C)(C)=O)nc3)nc2c(N[C@H](c2cc(C#N)ccc2F)C(F)F)c1Cl [Example 35, (R)-3-(1-((3-chloro-6-(6-(dimethylphosphoryl)pyridin-3-yl)-7-fluoro-2-methyl-1,5-naphthyridin-4-yl)amino)-2,2-difluoroethyl)-4-fluorobenzonitrile]
4.52 to 5.00 | Cc1nc2cc(F)c(-c3ccc(P(=O)(O)O)nc3)nc2c(N[C@H](C)c2cc(C#N)ccc2F)c1Cl [Example 37, diammonium 5-(7-chloro-8-{[(1R)-1-(5-cyano-2-fluorophenyl)ethyl]amino}-3-fluoro-6-methyl-1,5-naphthyridin-2-yl)pyridin-2-ylphosphonate]
≥ 6.00 | Cc1nc2cc(F)c(-c3ccc(CP(C)(C)=O)nc3)nc2c(N[C@H](C)c2cc(C#N)ccc2F)c1Cl [Example 39, (R)-3-(1-((3-chloro-6-(6-((dimethylphosphoryl)methyl)pyridin-3-yl)-7-fluoro-2-methyl-1,5-naphthyridin-4-yl)amino)ethyl)-4-fluorobenzonitrile]
≥ 7.00 | CCP(=O)(CC)c1ccc(-c2nc3c(N[C@H](C)c4cc(C#N)ccc4F)c(Cl)c(C)nc3cc2F)cn1 [Example 42, 3-[(1R)-1-({3-chloro-6-[6-(diethylphosphoryl)pyridin-3-yl]-7-fluoro-2-methyl-1,5-naphthyridin-4-yl}amino)ethyl]-4-fluorobenzonitrile]
